Results: patent US8222218B2, “Cyclopropanated carbohydrates” (Seton Hall University, priority 2008, dated 2012)
Like-named read-outs stand apart in the source and are kept apart here.

Legend:
[1] = Acute toxicity, minimal motor impairment (rotorod), mice; assay type: in vivo; details: mice, rotorod
Method in brief: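 Mice placed on a rod rotating at 6 rpm; a compound is scored toxic when the animal falls off three times within 1 min. In rats, minimal motor deficit is scored as ataxia, an abnormal uncoordinated gait.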

MES-induced seizures = assay: Maximal Electroshock Seizure (MES) test, mice; assay type: in vivo; details: Mus musculus, ip, mice, i.p.
Method in brief: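 Seizures were induced by a 60 Hz corneal current for 2 s (50 mA in CF1 mice, 150 mA in Sprague-Dawley rats). Mice received 30, 100 or 300 mg/kg i.p. in 0.5% methylcellulose and were tested at several intervals; rats received 30 mg/kg p.o. Protection means abolition of hind-limb tonic extension.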

[2] = test system: metrazole-induced clonic seizures; assay: Subcutaneous Metrazole Seizure Threshold Test (scMET), mice; assay type: in vivo; details: Mus musculus, sc, mice
Method in brief: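 CF1 mice dosed with test compound at 30, 100 and 300 mg/kg; Sprague-Dawley rats at 50 mg/kg p.o. At compound TPE, metrazole at CD97 (85 mg/kg in mice) injected s.c. in the neck. Animals observed 30 min; endpoint is a 3-5 s clonic spasm episode.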

[3] = molecular target: T1, cloned, human D1 receptor (Homo sapiens, UniProt P21728); assay: Radioligand competition binding assay, [3H]SCH23390
T1 construct: expressed in transfected cells
Excerpt: Receptor binding profiles were provided by the National Institute of Mental Health's Psychoactive Drug Screening Program, Contract # N01 MH32004 (NIMH PDSP) The NIMH PDSP is directed by Bryan L. Roth M. D., Ph.D. at the University of North Carolina at Chapel Hill and Project Officer Jamie Driscol at NIMH, Bethesda Md., USA. Protocols for receptor-based assays by the PDSP may be found on the website: http://pdsp.med.unc.edu/pdspw/binding.php and http://pdsp.med.unc.edu/pdspw/function.php (Apr. 30, 2008).
Radioligand competition binding assays were performed as previously described (Rothman, R. B., Baumann, M. H., Savage, J. E., Rauser, L., McBride, Hufeisen, S. J., Roth B. L. Circulation (2000) 102:2836-2841) for Compounds 7 and 16. Briefly, test compounds were dissolved to 10 mM in 100% DMSO, then diluted to the desired concentrations (spanning seven orders of magnitude) in Dopamine Binding Buffer (50 mM NaCl, 50 mM HEPES, 5 mM MgCl2, 0.5 mM EDTA, pH 7.4). Diluted test and reference compounds were added to wells containing radioligand ([^3H]SCH23390, 0.3 nM final concentration) and buffer, then membrane fractions from cells stably expressing cloned, human D1 or D5 receptors were added and binding was allowed to equilibrate at room temperature for 1.5 hours. At equilibrium, reactions were filtered (using a FilterMate 96-well harvester, PerkinElmer) onto GF-A glass fiber filters (Wallac) and allowed to dry. Meltilex scintillant (Wallac) was melted onto the dry filters, and then allowed to cool. Filters were then sealed in plastic bags and counted on a Wallac TriLux microbeta counter.
Raw data (dpm) representing total radioligand binding (i.e., specific+non-specific binding) were plotted as a function of the logarithm of the molar concentration of the competitor (i.e., test or reference compound). Non-linear regression of the normalized (i.e., percent radioligand binding compared to that observed in the absence of test or reference compound) raw data is performed in Prism 4.0 (GraphPad Software) using the built-in three parameter logistic model describing ligand competition binding to radioligand-labeled sites: y=bottom+[(top−bottom)/(1+10^x−logIC50)] where bottom equals the residual radioligand binding measured in the presence of 10 μM reference compound (i.e., non-specific binding) and top equals the total radioligand binding observed in the absence of competitor. The log IC50 (i.e., the log of the ligand concentration that reduces radioligand binding by 50%) is thus estimated from the data and used to obtain the Ki by applying the Cheng-Prusoff approximation: Ki=IC50/(1+[ligand]/KD) where [ligand] equals the assay radioligand concentration and KD equals the affinity constant of the radioligand for the target receptor.

[4] = background, previously made and tested; cited from earlier work
[5] = test system: metabotropic glutamate receptors; details: background; cited from earlier work

T1 sequence (P21728 whole entry): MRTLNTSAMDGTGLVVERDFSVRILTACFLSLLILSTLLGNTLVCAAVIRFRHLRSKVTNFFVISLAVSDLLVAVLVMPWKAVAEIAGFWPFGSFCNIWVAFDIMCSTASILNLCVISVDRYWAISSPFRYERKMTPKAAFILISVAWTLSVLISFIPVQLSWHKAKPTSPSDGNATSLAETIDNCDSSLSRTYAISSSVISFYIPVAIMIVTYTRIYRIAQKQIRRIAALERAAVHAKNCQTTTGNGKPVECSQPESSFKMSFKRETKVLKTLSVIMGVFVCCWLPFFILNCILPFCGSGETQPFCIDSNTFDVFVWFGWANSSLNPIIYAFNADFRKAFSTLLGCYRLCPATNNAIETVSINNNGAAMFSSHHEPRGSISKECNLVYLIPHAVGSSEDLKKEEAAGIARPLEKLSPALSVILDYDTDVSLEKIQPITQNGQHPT

CCOC(=O)C1[C@H]2O[C@@H]3COC(C)(C)O[C@H]3C(=NO)[C@@H]12 (stereo partly drawn) [Compound 7, ethyl (4aR,5aS,6aR,7aS)-7-(hydroxyimino)-2,2-dimethylhexahydro-4H-cyclopropa[5,6]pyrano[3,2-d][1,3]dioxine-6-carboxylate]
TOX 30 0.5 h (animals toxic/tested) ([1]; 30 mg/kg, 0.5 h): 0/4
TOX 30 4 h (animals toxic/tested) ([1]; 30 mg/kg, 4 h): 0/2
TOX 100 0.5 h (animals toxic/tested) ([1]; 100 mg/kg, 0.5 h): 1/8
TOX 100 4 h (animals toxic/tested) ([1]; 100 mg/kg, 4 h): 0/4
TOX 300 0.5 h (animals toxic/tested) ([1]; 300 mg/kg, 0.5 h): 3/4
TOX 300 4 h (animals toxic/tested) ([1]; 300 mg/kg, 4 h): 1/2
responders at 30 mg/kg (MES-induced seizures; 0.5 h, read-out: MES 30 0.5 h (animals protected/tested)): 0%
responders at 30 mg/kg (MES-induced seizures; 4 h, read-out: MES 30 4 h (animals protected/tested)): 0%
responders at 100 mg/kg (MES-induced seizures; 0.5 h, read-out: MES 100 0.5 h (animals protected/tested)): 0%
responders at 100 mg/kg (MES-induced seizures; 4 h, read-out: MES 100 4 h (animals protected/tested)): 0%
responders at 300 mg/kg (MES-induced seizures; 0.5 h, read-out: MES 300 0.5 h (animals protected/tested)): 0%
responders at 300 mg/kg (MES-induced seizures; 4 h, read-out: MES 300 4 h (animals protected/tested)): 0%
responders at 30 mg/kg ([2]; 0.4 h, read-out: scMET 30 0.4 h (animals protected/tested)): 0%
responders at 30 mg/kg ([2]; 0.5 h, read-out: scMET 30 0.5 h (animals protected/tested)): 0%
responders at 100 mg/kg ([2]; 0.4 h, read-out: scMET 100 0.4 h (animals protected/tested)): 0%
responders at 100 mg/kg ([2]; 0.5 h, read-out: scMET 100 0.5 h (animals protected/tested)): 0%
responders at 300 mg/kg ([2]; 0.4 h, read-out: scMET 300 0.4 h (animals protected/tested)): 0%
responders at 300 mg/kg ([2]; 0.5 h, read-out: scMET 300 0.5 h (animals protected/tested)): 0%
Ki ([3]; D1 dopamine receptor, [3H]SCH23390 0.3 nM, Cheng-Prusoff): 6.23 µM
inhibition of the D1 dopamine receptor ([3]; radioligand competition binding): significant inhibition

CC1(C)O[C@@H]2[C@@H](CO[C@@]3(COS(N)(=O)=O)OC(C)(C)O[C@@H]23)O1 [topiramate]
anticonvulsant activity [4]: greater anticonvulsant activity

CC1(C)OC[C@@H]2O[C@@]3(COS(N)(=O)=O)OC(C)(C)O[C@H]3[C@@H]2O1 [B]
anticonvulsant activity [4]: moderate anticonvulsant activity

CNS(=O)(=O)OC[C@@]12OC[C@H]3OC(C)(C)O[C@H]3[C@@H]1OC(C)(C)O2 [A]
anticonvulsant activity [4]: moderate anticonvulsant activity

7-(hydroxyimino)cyclopropa[b]chromen-1a-carboxylate [Compound C]
agonist activity at metabotropic glutamate receptors [5]: active agonists
